Legend:
[1] = system: thermostable β-xylosidase OJ1M-273-1 (GH3 family), SEQ ID NO: 2, from hot spring soil metagenome OJ1, expressed in E. coli, purified; assay: Kinetics of PNP substrate hydrolysis by OJ1M-273-1 β-xylosidase; type: biochemical; conditions: 105° C., pH 5 acetate buffer; for Vmax (maximum initial rate of hydrolysis) / Km: 10 min, enzyme diluted to 0.01 mg/mL, Michaelis-Menten fit; for Km: read-out: Km (Michaelis constant); for Kcat/Km (catalytic efficiency): calculated from fitted Vmax and Km
Protocol: The gene recombinant E. coli homogeneous supernatant was loaded onto an ion exchange column HiTrap Q HP (manufactured by GE Healthcare, Inc.) equilibrated with a 50 mM Tris-HCl buffer (pH 8.0), and a medium-high pressure liquid chromatography system AKTA design (manufactured by GE Healthcare, Inc.) was used to fractionate proteins with a concentration gradient of 0 to 50% in a 50 mM Tris-HCl buffer (pH 8.0) containing 1 M of NaCl. […] The fractions with β-xylosidase activity following the buffer exchange were loaded onto a hydrophobic interaction separation column HiTrap Phenyl HP (manufactured by GE Healthcare, Inc.) equilibrated with the same buffer solution, and the proteins were fractionated with a concentration gradient of 0 to 100% in a 50 mM Tris-HCl buffer (pH 8.0). […] The concentrated sample was loaded onto a gel filtration column Hiload 26/60 superdex 200 pg (manufactured by GE Healthcare, Inc.) equilibrated with a 50 mM Tris-HCl buffer (pH 8.0) containing 150 mM of NaCl, and was fractionated by passing a volume of the same buffer equivalent to 1 to 1.5 times the column volume through the column at a flow rate of 2 to 3 mL/min.
PNPX was used as the substrate for measuring the β-xylosidase activity. A solution prepared by dissolving PNPX (manufactured by Sigma-Aldrich Co. LLC.) in water to obtain a prescribed final concentration was used as the substrate solution. The PNPX substrate solutions used in the experiments described below all used aqueous solutions of PNPX prepared by the above method. In the measurements, a solution prepared by diluting the purified enzyme obtained in section <6> above with a 0.05 M Tris-HCl buffer (pH 8.0) to obtain a concentration of 0.1 to 0.01 mg/mL was used.
The reaction solution was composed of 6 μL of the diluted purified enzyme, 294 μL of purified water, 150 μL of a 200 mM acetate buffer (pH 5), and 150 μL of a 20 mM PNPX aqueous solution.
The reaction was performed at 60° C. to 115° C. for 10 minutes using a ReactiTherm (manufactured by Thermo Fisher Scientific Inc.). A glass vial with a volume of 1.5 mL was used as the reaction vessel, and the inside of the vial was pre-coated with a 1.5% by mass aqueous solution of BSA in order to suppress enzyme protein adsorption. In all measurements, a mixed solution prepared by replacing the gene recombinant E. coli homogenous supernatant or the purified enzyme with a 50 mM Tris-HCl buffer (pH 8.0) and then reacting the solution under the same conditions was used as a control. Further, the mixed solution containing the enzyme (the gene recombinant E. coli homogenous supernatant or the purified enzyme), the purified water and the buffer was held at the reaction temperature for five minutes (pre-incubation), the substrate solution was then added, and the reaction was performed. In each case, following completion of the 10-minute reaction, the reaction was halted by adding a 0.2 M Na2CO3 solution to the reaction solution in a volume equal to that of the mixed solution, and the resulting mixture was then centrifuged for 5 minutes to obtain a supernatant. The amount of p-nitrophenol in the supernatant was determined by measuring the absorbance at 420 nm using a spectrophotometer, calculating the amount of p-nitrophenol in the supernatant using a calibration curve prepared with p-nitrophenol, and then determining the amount of p-nitrophenol produced by the enzymatic hydrolysis on the basis of the difference from the control. The enzymatic activity for producing 1 μmol of p-nitrophenol per minute was defined as 1 U, and the value obtained by dividing this activity by the amount of protein was defined as the specific activity (U/mg). Each measurement was performed for three independent experiments, and a mean value and a standard error were determined.
The maximum initial rate (Vmax) of hydrolysis, the Michaelis constant (Km) and the catalytic efficiency (Kcat/Km) were investigated for PNP substrate hydrolysis by OJ1M-273-1. […]

[2] = system: thermostable 1-xylosidase having an optimum temperature of 95° C. (Non-Patent Document 7, Shi et al., 2013); conditions: PNPX as substrate; cited from earlier work

O=[N+]([O-])c1ccc(O[C@@H]2O[C@@H](CO)[C@H](O)[C@H]2O)cc1 [PNPAF, p-nitrophenyl-α-L-arabinofuranoside]
Vmax (maximum initial rate of hydrolysis) [1]: 914.5 U/mg | Km [1]: 13.7 mM | Kcat/Km (catalytic efficiency) [1]: 87700 M⁻¹ s⁻¹

O=[N+]([O-])c1ccc(O[C@@H]2OC[C@H](O)[C@H](O)[C@H]2O)cc1 [PNPAP, p-nitrophenyl-α-L-arabinopyranoside]
Vmax (maximum initial rate of hydrolysis) [1]: 838.5 U/mg | Km [1]: 20.6 mM | Kcat/Km (catalytic efficiency) [1]: 53600 M⁻¹ s⁻¹

O=[N+]([O-])c1ccc(O[C@@H]2OC[C@@H](O)[C@H](O)[C@H]2O)cc1 [PNPX, p-nitrophenyl-β-D-xylopyranoside]
catalytic efficiency Kcat/Km [2]: 1.1734e+06 M⁻¹ s⁻¹ | Vmax (maximum initial rate of hydrolysis) [1]: 86.0 U/mg | Km [1]: 0.44 mM | Kcat/Km (catalytic efficiency) [1]: 259800 M⁻¹ s⁻¹
